One block for each molecule: values may come before it.
Test: solvent given as SMILES
[1] = in CCCCCCCC(=O)OCC(COC(=O)CCCCCCC)OC(=O)CCCCCCC

Compound: Brc1cc(Br)c(Br)cc1Br
solvation free energy, 298 K (in CCCCCCCCC=CCCCCCCCC(=O)OCC(COC(=O)CCCCCCCC=CCCCCCCCC)OC(=O)CCCCCCCC=CCCCCCCCC): -9.71 kcal/mol | solvation free energy, 298 K (in O): -2.54 kcal/mol

Compound: Cc1ccc(O)c(O)c1
solvation free energy, 298 K (in CCCCCC): -6.99 kcal/mol | solvation free energy, 298 K (in CCCCCCC): -7.05 kcal/mol | solvation free energy, 298 K (in CCCCCCCC): -7.02 kcal/mol | solvation free energy, 298 K (in Cc1ccc(C)cc1): -9.05 kcal/mol | solvation free energy, 298 K (in Cc1cccc(C)c1): -9.05 kcal/mol | solvation free energy, 298 K (in Cc1ccccc1C): -9.05 kcal/mol

Compound: c1ccc2c(c1)OCCOCCOCCOc1ccccc1OCCOCCOCCO2
solvation free energy, 298 K (in Cc1cccc(C)c1): -27.3 kcal/mol | solvation free energy, 298 K (in O): -23.6 kcal/mol

Compound: CCCCCCCCP(=O)(CCCCCCCC)CCCCCCCC
solvation free energy, 298 K (in O): -15.5 kcal/mol

Compound: CCCCCCCCO
solvation free energy, 298 K (in CC(C)CC(C)(C)C): -6.52 kcal/mol | solvation free energy, 298 K (in CCC(C)=O): -8.2 kcal/mol | solvation free energy, 298 K (in CCCCCCC): -6.38 kcal/mol | solvation free energy, 298 K (in CCCCCCCCCCCCCCCC): -6.17 kcal/mol | solvation free energy, 298 K (in CCCCCCCCCO): -8.45 kcal/mol | solvation free energy, 298 K (in CCCCCCO): -8.58 kcal/mol | solvation free energy, 298 K (in CCCCCl): -7.22 kcal/mol | solvation free energy, 298 K (in CO): -8.03 kcal/mol | solvation free energy, 298 K (in NC=O): -6.49 kcal/mol | solvation free energy, 298 K (in O): -4.07 kcal/mol

Compound: CCCCCC(N)=O
solvation free energy, 298 K (in O): -9.31 kcal/mol

Compound: CCOCCOC(=O)c1ccccc1C(=O)OCCOCC
solvation free energy, 298 K (in O): -13.4 kcal/mol

Compound: NC=O
solvation free energy, 298 K (in CC(C)c1ccccc1): -4.1 kcal/mol | solvation free energy, 298 K (in CCc1ccccc1): -4.58 kcal/mol | solvation free energy, 298 K (in O): -10.2 kcal/mol

Compound: N
solvation free energy, 298 K (in CC(C)=O): -2.02 kcal/mol | solvation free energy, 298 K (in CC(C)CO): -2.54 kcal/mol | solvation free energy, 298 K (in CC(C)O): -2.37 kcal/mol | solvation free energy, 298 K (in CCC(C)=O): -1.94 kcal/mol | solvation free energy, 298 K (in CCCCCCC): -1.27 kcal/mol | solvation free energy, 298 K (in CCCCO): -2.4 kcal/mol | solvation free energy, 298 K (in CCCO): -2.4 kcal/mol | solvation free energy, 298 K (in CCO): -2.65 kcal/mol | solvation free energy, 298 K (in CN1CCCC1=O): -1.85 kcal/mol | solvation free energy, 298 K (in CO): -3.08 kcal/mol | solvation free energy, 298 K (in ClC(Cl)Cl): -2.41 kcal/mol | solvation free energy, 298 K (in Clc1ccccc1): -1.36 kcal/mol | solvation free energy, 298 K (in O): -4.34 kcal/mol

Compound: CCCCN
solvation free energy, 298 K (in C1COCCO1): -4.48 kcal/mol | solvation free energy, 298 K (in CCCCCCCC): -3.44 kcal/mol | solvation free energy, 298 K (in CCCCCCCCCC): -3.4 kcal/mol | solvation free energy, 298 K (in CCCCCCCCCCCCCCCC): -3.5 kcal/mol | solvation free energy, 298 K (in CCCCOCCCC): -3.66 kcal/mol | solvation free energy, 298 K (in O): -4.23 kcal/mol

Compound: CC(F)(F)Cl
solvation free energy, 298 K [1]: -1.84 kcal/mol | solvation free energy, 298 K (in CCCCCCCCC): -1.74 kcal/mol | solvation free energy, 298 K (in CCCCCCCCO): -1.62 kcal/mol | solvation free energy, 298 K (in CN1CCCC1=O): -2.13 kcal/mol | solvation free energy, 298 K (in CN(C)C=O): -2.09 kcal/mol | solvation free energy, 298 K (in O): 0.61 kcal/mol

Compound: CC(C)=CCCC(C)CCOC=O (stereo not drawn)
solvation free energy, 298 K (in O): -3.08 kcal/mol

Compound: FC(F)(F)c1ccccc1C(F)(F)F
solvation free energy, 298 K (in O): 1.07 kcal/mol

Compound: CCCC(=O)OCCC(C)CCC=C(C)C (stereo not drawn)
solvation free energy, 298 K (in O): -2.73 kcal/mol

Compound: CCC(C)(C)CC
solvation free energy, 298 K (in C=CCCCCCCCCCCCCCC): -3.89 kcal/mol

Compound: C1COCCOCCOCCOCCO1
solvation free energy, 298 K (in Cc1cccc(C)c1): -10.9 kcal/mol | solvation free energy, 298 K (in O): -12.8 kcal/mol

Compound: CCCl
solvation free energy, 298 K (in CC(=O)N(C)C): -2.93 kcal/mol | solvation free energy, 298 K (in CC(C)(C)O): -2.44 kcal/mol | solvation free energy, 298 K (in CC(C)CCO): -2.43 kcal/mol | solvation free energy, 298 K (in CC(C)CO): -2.43 kcal/mol | solvation free energy, 298 K (in CC(C)O): -2.47 kcal/mol | solvation free energy, 298 K (in CCC(C)(C)O): -2.5 kcal/mol | solvation free energy, 298 K (in CCC(C)CO): -2.4 kcal/mol | solvation free energy, 298 K (in CCC(C)O): -2.41 kcal/mol | solvation free energy, 298 K (in CCC(O)CC): -2.41 kcal/mol | solvation free energy, 298 K (in CCCC(C)O): -2.36 kcal/mol | solvation free energy, 298 K [1]: -2.56 kcal/mol | solvation free energy, 298 K (in CCCCCCCCC): -2.34 kcal/mol | solvation free energy, 298 K (in CCCCCCCCO): -2.32 kcal/mol | solvation free energy, 298 K (in CCCCCO): -2.47 kcal/mol | solvation free energy, 298 K (in CCCCO): -2.5 kcal/mol | solvation free energy, 298 K (in CCCO): -2.54 kcal/mol | solvation free energy, 298 K (in CN(C)C=O): -2.74 kcal/mol | solvation free energy, 298 K (in CO): -2.63 kcal/mol | solvation free energy, 298 K (in Cc1ccc(C)cc1): -2.83 kcal/mol | solvation free energy, 298 K (in Cc1cccc(C)c1): -2.87 kcal/mol | solvation free energy, 298 K (in Cc1ccccc1C): -2.86 kcal/mol | solvation free energy, 298 K (in Clc1ccccc1): -2.96 kcal/mol | solvation free energy, 298 K (in N#Cc1ccccc1): -2.88 kcal/mol | solvation free energy, 298 K (in O): -0.63 kcal/mol

Compound: Cc1ccc(N(O)C(=O)COc2ccccc2)cc1
solvation free energy, 298 K (in O): -12.8 kcal/mol

Compound: O=c1[nH]cc(I)c(=O)[nH]1
solvation free energy, 298 K (in O): -18.7 kcal/mol

Compound: CC(C)CCl
solvation free energy, 298 K (in C1CCOC1): -4.39 kcal/mol | solvation free energy, 298 K (in C1CCOCC1): -4.28 kcal/mol | solvation free energy, 298 K (in C=CCCCCCCCCCCCCCC): -3.51 kcal/mol | solvation free energy, 298 K (in CCCCCC): -3.87 kcal/mol | solvation free energy, 298 K (in COC(C)(C)C): -4.13 kcal/mol | solvation free energy, 298 K (in O): 0.03 kcal/mol

Further lines, results first:

solvation free energy, 298 K (in CN(C)C=O): -2.62 kcal/mol | solvation free energy, 298 K (in O): 0.94 kcal/mol
Compound: C=CCC=C

solvation free energy, 298 K (in O): -14.5 kcal/mol
Compound: O=C(c1ccccc1[N+](=O)[O-])N(O)c1ccccc1

solvation free energy, 298 K (in O): -6.78 kcal/mol
Compound: CCCCCCCCCCOC(=O)c1ccccc1C(=O)OCC

solvation free energy, 298 K (in O): -4.84 kcal/mol
Compound: Cc1cncc(C)c1

solvation free energy, 298 K (in CN1CCCC1=O): -12.8 kcal/mol | solvation free energy, 298 K (in O): -8.94 kcal/mol
Compound: O=Cc1ccc(C(=O)O)cc1

solvation free energy, 298 K (in CC(C)CC(C)(C)C): -7.63 kcal/mol
Compound: CNC(=O)c1ccccc1

solvation free energy, 298 K (in CCCCCC): -3.74 kcal/mol
Compound: CC(C)=NO

solvation free energy, 298 K (in O): 0.46 kcal/mol
Compound: CC1=CCC2(C)CCCC(C)(C)C23CC13 (stereo not drawn)

solvation free energy, 298 K (in C=CCCCCCCCCCCCCCC): -3.86 kcal/mol | solvation free energy, 298 K (in O): 0.61 kcal/mol
Compound: CC=CC=CC

solvation free energy, 298 K (in O): 0.05 kcal/mol
Compound: CC1=CCCC(C)=CCC(C)(C)C=CC1

solvation free energy, 298 K (in O): -5.5 kcal/mol
Compound: CC(=O)OCCc1ccccc1
